Laboratory results published in US8829014B2, “Thiazole and thiophene analogues, and their use in treating autoimmune diseases and cancers” (Board of Supervisors of Louisiana State University and …, priority 2006, dated 2014).

Tests used:
[1] = system: carageenan-induced edema; assay: Carrageenan-induced rat paw edema test (anti-inflammatory activity); type: in vivo, Sprague-Dawley rats; details: rat paw edema, 50 mg/kg, reading 3 hours after carrageenan, [(Control−Test)/Control]×100%; for inhibition in vivo at 50 mg/kg: Rattus norvegicus, po, 3 h, read-out: % Protection P
Method in brief: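 Edema was raised by sub-plantar injection of 1% carrageenan into the right hind paw, 1 h after dosing 18 h-fasted male/female Sprague-Dawley rats (150-250 g) with 50 mg/kg p.o. in 0.1% CMC. Swelling was measured by displacement 3 h later and expressed as % protection against saline control.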

[2] = system: NF-κB; assay: TNF-α-induced NF-κB-dependent luciferase expression in HEK cells; type: cell-based; details: luciferase in HEK/NF-κB cells, as described in Example 398; for inhibition at 1 µM: Homo sapiens, HEK293, 1 uM, read-out: NFkB inhibition @ 1 uM
[3] = system: AP-1; assay: PMA-induced AP-1 luciferase expression in HEK cells; type: cell-based; details: luciferase in HEK/AP-1 cells, as described in Example 398; for inhibition at 1 µM: AP1, 1 uM

`O=c1c2ccccc2nc(-c2cc(-c3ccc(Cl)cc3)c(N3CCOCC3)s2)n1-c1ccc(Cl)cc1` [Example 310, 2-[4-(4-Chloro-phenyl)-5-morpholin-4-yl-thiophene-2-yl]-3-(4-chloro-phenyl)-3H-quinazolin-4-one] showed an inhibition in vivo at 50 mg/kg [1] of 60%, an inhibition at 1 µM [2] of 0% and an inhibition at 1 µM [3] of 14%.
`CC(=O)Nc1ccc(-c2cc(-c3nc4ccccc4c(=O)n3-c3ccc(Cl)cc3)sc2N2CCOCC2)cc1` [Example 311] was tested, and the “% Protection P” value [1] was 28%, the “NFkB inhibition @ 1 uM” value [2] was 0 and the “AP-1 inhibition @ 1 uM” value [3] was 17.
`CS(=O)(=O)c1ccc(-c2cc(-c3nc4ccccc4c(=O)n3-c3ccc(Cl)cc3)sc2N2CCOCC2)cc1` [Example 312, 2-[4-(4-Methanesulphonyl-phenyl)-5-morpholin-4-yl-thiophen-2-yl]-3-(4-chloro-phenyl)-3H-quinazolin-4-one] showed an inhibition in vivo at 50 mg/kg [1] of 57%, an inhibition at 1 µM [2] of 0% and an inhibition at 1 µM [3] of 7%.
`O=c1c2ccccc2nc(-c2cc(-c3ccncc3)c(N3CCOCC3)s2)n1-c1ccc(Cl)cc1` [Example 313, 3-(4-Chloro-phenyl)-2-(5-morpholin-4-yl-4-pyridin-4-yl-thiophen-2-yl)-3H-quinazolin-4-one] showed an inhibition in vivo at 50 mg/kg [1] of 52%, an inhibition at 1 µM [2] of 68% and an inhibition at 1 µM [3] of 32%.
`CC(=O)c1ccc(-n2c(-c3cc(-c4ccccc4)c(N4CCOCC4)s3)nc3ccccc3c2=O)cc1` [Example 314] was tested, and the “% Protection P” value [1] was 36%, the “NFkB inhibition @ 1 uM” value [2] was 0 and the “AP-1 inhibition @ 1 uM” value [3] was 25.
In the case of `CC(=O)c1ccc(-c2cc(-c3nc4ccccc4c(=O)n3-c3ccc(Cl)cc3)sc2N2CCOCC2)cc1` [Example 315, 2-[4-(4-Acetyl-phenyl)-5-morpholin-4-yl-thiophene-2-yl]-3-(4-chloro-phenyl)-3H-quinazolin-4-one], the inhibition in vivo at 50 mg/kg [1] is reported as 51%, the inhibition at 1 µM [2] is reported as 0% and the inhibition at 1 µM [3] is reported as 7%.
Work on `CC(=O)c1ccc(-n2c(-c3cc(-c4ccc(S(C)(=O)=O)cc4)c(N4CCOCC4)s3)nc3ccccc3c2=O)cc1` [Example 317, 2-[4-(4-Methanesulphonyl-phenyl)-5-morpholin-4-yl-thiophen-2-yl]-3-(4-acetyl-phenyl)-3H-quinazolin-4-one] yielded an inhibition in vivo at 50 mg/kg [1] of 73%, an inhibition at 1 µM [2] of 46% and an inhibition at 1 µM [3] of 31%.
For `CC(=O)c1ccc(-n2c(-c3cc(-c4ccncc4)c(N4CCOCC4)s3)nc3ccccc3c2=O)cc1` [Example 319, 3-(4-acetyl-phenyl)-2-(5-morpholin-4-yl-4-pyridin-4-yl-thiophen-2-yl)-3Hquinazolin-4-one], the inhibition in vivo at 50 mg/kg [1] was 81%, the inhibition at 1 µM [2] was 66% and the inhibition at 1 µM [3] was 84%.
Work on `Cc1c(OCC(F)(F)F)ccnc1-c1sc(Nc2ccccc2)nc1N` [Example 331, 5-[3-Methyl-4-(2,2,2-trifluoro-ethoxy)-pyridin-2-yl]-N2-phenyl-thiazole-2,4-diamine] yielded an inhibition in vivo at 50 mg/kg [1] of 62.3%, an inhibition at 1 µM [2] of -10.6% and an inhibition at 1 µM [3] of 27.4%.
`COc1ccc(C(=O)c2sc(Nc3ccc(Cl)cc3)nc2N)cc1` [Example 332, [4-Amino-2-(4-chloro-phenylamino)-thiazol-5-yl]-(4-methoxy-phenyl)-methanone] showed an inhibition in vivo at 50 mg/kg [1] of 36%, an inhibition at 1 µM [2] of 0.13% and an inhibition at 1 µM [3] of -32.2%.
`Nc1nc(Nc2ccc(Cl)cc2)sc1C(=O)c1cccnc1` [Example 338, (4-Amino-2-(4-chlorophenylamino)-thiazol-5-yl)-pyridin-3-yl-methanone] was tested, and the inhibition in vivo at 50 mg/kg [1] was 25.8%, the inhibition at 1 µM [2] was -84.1% and the inhibition at 1 µM [3] was -89.1%.
With `Nc1nc(Nc2ccc(Cl)cc2)sc1C(=O)c1ccccn1` [Example 340, [4-Amino-2-(4-chloro-phenylamino)-thiazol-5-yl]-pyridin-2-yl-methanone] the inhibition in vivo at 50 mg/kg [1] was 34%, the inhibition at 1 µM [2] was -18.2% and the inhibition at 1 µM [3] was 57.3%.
`COc1ccc(Nc2nc(N)c(C(=O)c3ccc(C)cc3)s2)cc1` [Example 344, ([4-Amino-2-(4-methoxy-phenylamino)-thiazol-5-yl]-p-tolyl-methanone)] showed an inhibition in vivo at 50 mg/kg [1] of 79.8%, an inhibition at 1 µM [2] of 49% and an inhibition at 1 µM [3] of 70.3%.
Work on `COc1ccc(Nc2nc(N)c(C(=O)c3ccc(Cl)cc3Cl)s2)cc1` [Example 346, ([4-Amino-2-(4-methoxy-phenylamino)-thiazol-5-yl]-(2,4-dichloro-phenyl)-methanone)] yielded an inhibition in vivo at 50 mg/kg [1] of 28.3%, an inhibition at 1 µM [2] of -4.13% and an inhibition at 1 µM [3] of 64.6%.
Compound `COc1ccc(Nc2nc(N)c(C(=O)c3cccnc3)s2)cc1` [Example 349, ([4-Amino-2-(4-methoxy-phenylamino)-thiazol-5-yl]-pyridin-3-yl-methanone)] has an inhibition in vivo at 50 mg/kg [1] of 18.2%, an inhibition at 1 µM [2] of -35.9% and an inhibition at 1 µM [3] of 51.5%.
For `COc1ccc(Nc2nc(N)c(C(=O)c3ccccn3)s2)cc1` [Example 351, ([4-Amino-2-(4-methoxy-phenylamino)-thiazol-5-yl]-pyridin-2-yl-methanone)], the inhibition in vivo at 50 mg/kg [1] was 27%, the inhibition at 1 µM [2] was -35.9% and the inhibition at 1 µM [3] was 51.5%.
`COc1ccc(Nc2nc(N)c(-c3nccc(OCC(F)(F)F)c3C)s2)cc1` [Example 353, (N2-(4-Methoxy-phenyl)-5-[3-Methyl-4-(2,2,2-trifluoro-ethoxy)-pyridin-2-yl]-thiazole-2,4-diamine)] was tested, and the inhibition in vivo at 50 mg/kg [1] was 82.5%, the inhibition at 1 µM [2] was 59.1% and the inhibition at 1 µM [3] was 62%.
`Cc1ccc(C(=O)c2sc(Nc3ccc(Cl)cc3)nc2NC(=O)Nc2ccc(F)cc2)cc1` [Example 356, 1-[2-(4-Chloro-phenylamino)-5-(4-methyl-benzoyl)-thiazol-4-yl]-3-(4-fluoro-phenyl)-urea] gave an inhibition in vivo at 50 mg/kg [1] of 69.5%, an inhibition at 1 µM [2] of 54.6% and an inhibition at 1 µM [3] of 48.4%.
For `Cc1ccc(C(=O)c2sc(N3CCN(C(=O)c4ccco4)CC3)nc2-c2ccco2)cc1` [Example 371, {2-[4-(Furan-2-carbonyl)-piperazin-1-yl]-4-furan-2-yl-thiazol-5-yl}-p-tolyl-methanone], the inhibition in vivo at 50 mg/kg [1] was 34%, the inhibition at 1 µM [2] was 10.4% and the inhibition at 1 µM [3] was 25.6%.
With `O=C(c1ccc(Cl)cc1)c1sc(N2CCN(C(=O)c3ccco3)CC2)nc1-c1ccco1` [Example 373, (4-Chloro-phenyl)-{2-[4-(furan-2-carbonyl)-piperazin-1-yl]-4-furan-2-yl-thiazol-5-yl}-methanone] the inhibition in vivo at 50 mg/kg [1] was 42%, the inhibition at 1 µM [2] was -6.07% and the inhibition at 1 µM [3] was 26.9%.
`O=C(c1ccc(Cl)cc1Cl)c1sc(N2CCN(C(=O)c3ccco3)CC2)nc1-c1ccco1` [Example 374, (2,4-Dichloro-phenyl)-{2-[4-(furan-2-carbonyl)-piperazin-1-yl]-4-furan-2-yl-thiazol-5-yl}-methanone] showed an inhibition in vivo at 50 mg/kg [1] of 62.6%, an inhibition at 1 µM [2] of 6.25% and an inhibition at 1 µM [3] of 46.2%.
Work on `CS(=O)(=O)c1ccc(C(=O)c2sc(N3CCN(C(=O)c4ccco4)CC3)nc2-c2ccco2)cc1` [Example 375, {2-[4-(Furan-2-carbonyl)-piperazin-1-yl]-4-furan-2-yl-thiazol-5-yl}-(4-methanesulfonyl-phenyl)-methanone] yielded an inhibition in vivo at 50 mg/kg [1] of 49%, an inhibition at 1 µM [2] of -13.2% and an inhibition at 1 µM [3] of 22.1%.
`O=C(c1cccnc1)c1sc(N2CCN(C(=O)c3ccco3)CC2)nc1-c1ccco1` [Example 376, {2-[4-(Furan-2-carbonyl)-piperazin-1-yl]-4-furan-2-yl-thiazol-5-yl}-pyridin-3-yl-methanone] showed an inhibition in vivo at 50 mg/kg [1] of 33%, an inhibition at 1 µM [2] of -14.1% and an inhibition at 1 µM [3] of 45.9%.
In the case of `O=C(c1ccncc1)c1sc(N2CCN(C(=O)c3ccco3)CC2)nc1-c1ccco1` [Example 377, {2-[4-(Furan-2-carbonyl)-piperazin-1-yl]-4-furan-2-yl-thiazol-5-yl}-pyridin-4-yl-methanone], the inhibition in vivo at 50 mg/kg [1] is reported as 32%, the inhibition at 1 µM [2] is reported as -7.88% and the inhibition at 1 µM [3] is reported as 4.84%.
`COc1c(C)cnc(-c2sc(N3CCN(C(=O)c4ccco4)CC3)nc2-c2ccco2)c1C` [Example 378, Furan-2-yl-{4-[4-furan-2-yl-5-(4-methoxy-3,5-dimethyl-pyridin-2-yl)-thiazol-2-yl]-piperazin-1-yl}-methanone] was tested, and the inhibition in vivo at 50 mg/kg [1] was 84.2%, the inhibition at 1 µM [2] was 22.1% and the inhibition at 1 µM [3] was 43.3%.
`Cc1c(OCC(F)(F)F)ccnc1-c1sc(N2CCN(C(=O)c3ccco3)CC2)nc1-c1ccco1` [Example 379, Furan-2-yl-(4-{4-furan-2-yl-5-[3-methyl-4-(2,2,2-trifluoro-ethoxy)-pyridin-2-yl]-thiazol-2-yl}-piperazin-1-yl)-methanone] gave an inhibition in vivo at 50 mg/kg [1] of 62.4%, an inhibition at 1 µM [2] of 51.1% and an inhibition at 1 µM [3] of 3.23%.
Compound `O=C(c1ccc(Cl)cc1)c1sc(N2CCN(C(=O)c3ccco3)CC2)nc1-c1ccccc1` [Example 383, (4-Chloro-phenyl)-{2-[4-(furan-2-carbonyl)-piperazin-1-yl]-4-phenyl-thiazol-5-yl}-methanone] has an inhibition in vivo at 50 mg/kg [1] of 62%, an inhibition at 1 µM [2] of -0.23% and an inhibition at 1 µM [3] of 13.3%.
`O=C(c1ccc(Cl)cc1Cl)c1sc(N2CCN(C(=O)c3ccco3)CC2)nc1-c1ccccc1` [Example 384, (2,4-Dichloro-phenyl)-{2-[4-(furan-2-carbonyl)-piperazin-1-yl]-4-phenyl-thiazol-5-yl}-methanone] showed an inhibition in vivo at 50 mg/kg [1] of 71.6%, an inhibition at 1 µM [2] of -1.4% and an inhibition at 1 µM [3] of 42.5%.
